Source: ChEMBL document CHEMBL1129108, “On the bioactive conformation of the gaba uptake inhibitor SK&F 89976-A” (Bioorg Med Chem Lett, 1996)

Legend:
Format in all cases: functional
[1] = biological target: Sodium- and chloride-dependent GABA transporter 1 (Homo sapiens, UniProt P30531); assay: Compound was tested for its ability to inhibit uptake of [3H]- GABA by cloned human GAT-1 transporter
[2] = biological target: T1, Sodium- and chloride-dependent betaine transporter (Homo sapiens, UniProt P48065); assay: Compound was tested for its ability to inhibit uptake of [3H]- GABA by cloned human BGT-1 transporter
T1 sequence (P48065 whole entry): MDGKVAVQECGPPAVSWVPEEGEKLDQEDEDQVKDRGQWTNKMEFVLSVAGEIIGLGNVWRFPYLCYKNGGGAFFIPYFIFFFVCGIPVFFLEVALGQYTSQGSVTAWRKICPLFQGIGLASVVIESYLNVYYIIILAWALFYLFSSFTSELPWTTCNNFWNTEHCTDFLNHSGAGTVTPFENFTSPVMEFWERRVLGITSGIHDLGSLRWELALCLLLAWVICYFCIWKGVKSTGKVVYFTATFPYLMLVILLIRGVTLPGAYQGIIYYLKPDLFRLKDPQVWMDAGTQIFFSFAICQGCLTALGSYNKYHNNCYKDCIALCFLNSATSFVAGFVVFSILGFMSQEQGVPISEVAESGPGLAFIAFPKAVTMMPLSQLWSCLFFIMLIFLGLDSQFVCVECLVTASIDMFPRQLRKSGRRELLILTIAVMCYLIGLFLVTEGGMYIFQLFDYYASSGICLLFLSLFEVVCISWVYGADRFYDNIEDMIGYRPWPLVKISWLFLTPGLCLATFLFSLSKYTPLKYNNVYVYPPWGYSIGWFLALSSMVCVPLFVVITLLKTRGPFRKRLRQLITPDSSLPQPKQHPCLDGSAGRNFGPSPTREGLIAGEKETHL

[3] = biological target: T2, Sodium- and chloride-dependent GABA transporter 2 (Rattus norvegicus, UniProt P31646); assay: Compound was tested for its ability to inhibit uptake of [3H]- GABA by cloned rat GAT-2 transporte
T2 sequence (P31646 whole entry): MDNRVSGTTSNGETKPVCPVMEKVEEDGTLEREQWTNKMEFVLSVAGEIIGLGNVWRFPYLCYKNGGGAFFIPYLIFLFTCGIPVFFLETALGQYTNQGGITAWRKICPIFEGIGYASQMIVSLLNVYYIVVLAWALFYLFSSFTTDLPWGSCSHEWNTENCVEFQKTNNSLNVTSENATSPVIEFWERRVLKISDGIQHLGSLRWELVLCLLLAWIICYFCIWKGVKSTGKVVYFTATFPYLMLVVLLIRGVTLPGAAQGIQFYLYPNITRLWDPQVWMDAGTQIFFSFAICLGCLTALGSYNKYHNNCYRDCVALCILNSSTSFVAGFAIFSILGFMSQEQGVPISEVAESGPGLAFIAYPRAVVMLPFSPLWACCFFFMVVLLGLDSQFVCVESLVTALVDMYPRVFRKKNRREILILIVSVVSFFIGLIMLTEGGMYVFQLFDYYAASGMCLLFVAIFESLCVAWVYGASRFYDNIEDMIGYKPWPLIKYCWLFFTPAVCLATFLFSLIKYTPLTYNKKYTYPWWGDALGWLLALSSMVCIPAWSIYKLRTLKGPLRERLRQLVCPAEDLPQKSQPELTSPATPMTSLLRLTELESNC

[4] = biological target: T3, Sodium- and chloride-dependent GABA transporter 3 (Homo sapiens, UniProt P48066); assay: Compound was tested for its ability to inhibit uptake of [3H]- GABA by cloned human GAT-3 transporter
T3 sequence (P48066 whole entry): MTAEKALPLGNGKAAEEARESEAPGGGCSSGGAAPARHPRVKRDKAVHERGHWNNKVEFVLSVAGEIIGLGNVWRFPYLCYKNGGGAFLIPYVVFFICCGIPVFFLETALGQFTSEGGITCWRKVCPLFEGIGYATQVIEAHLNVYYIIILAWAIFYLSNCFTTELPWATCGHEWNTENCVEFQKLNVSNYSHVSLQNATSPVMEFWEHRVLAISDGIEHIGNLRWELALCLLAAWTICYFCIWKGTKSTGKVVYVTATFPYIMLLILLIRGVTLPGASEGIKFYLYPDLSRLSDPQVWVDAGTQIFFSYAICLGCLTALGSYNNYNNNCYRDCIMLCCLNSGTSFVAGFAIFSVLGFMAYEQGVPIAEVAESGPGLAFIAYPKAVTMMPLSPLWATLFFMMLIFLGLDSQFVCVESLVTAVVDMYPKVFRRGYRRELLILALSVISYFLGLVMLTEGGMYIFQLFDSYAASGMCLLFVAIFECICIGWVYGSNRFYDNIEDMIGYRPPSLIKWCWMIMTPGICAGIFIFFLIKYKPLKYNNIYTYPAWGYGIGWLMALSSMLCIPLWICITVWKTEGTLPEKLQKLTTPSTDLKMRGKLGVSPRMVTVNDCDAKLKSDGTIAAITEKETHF

Sodium- and chloride-dependent GABA transporter 1, sequence (P30531 whole entry): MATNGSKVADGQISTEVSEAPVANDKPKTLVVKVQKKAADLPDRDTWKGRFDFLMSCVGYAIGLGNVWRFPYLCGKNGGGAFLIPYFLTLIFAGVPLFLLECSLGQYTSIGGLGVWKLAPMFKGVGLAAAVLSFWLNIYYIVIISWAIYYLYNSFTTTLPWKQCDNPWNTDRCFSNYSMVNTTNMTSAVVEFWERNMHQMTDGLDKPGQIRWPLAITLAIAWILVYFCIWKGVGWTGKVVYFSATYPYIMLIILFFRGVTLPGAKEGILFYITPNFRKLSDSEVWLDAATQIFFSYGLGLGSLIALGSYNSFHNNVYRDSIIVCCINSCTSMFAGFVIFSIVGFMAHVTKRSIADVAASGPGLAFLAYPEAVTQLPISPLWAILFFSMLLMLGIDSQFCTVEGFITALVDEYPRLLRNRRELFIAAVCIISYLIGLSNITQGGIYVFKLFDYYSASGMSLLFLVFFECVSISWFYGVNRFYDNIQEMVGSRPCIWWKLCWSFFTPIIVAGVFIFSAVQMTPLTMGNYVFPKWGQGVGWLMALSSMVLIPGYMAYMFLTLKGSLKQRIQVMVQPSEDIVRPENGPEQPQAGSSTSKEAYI

IC50 [1] | IC50 [2] | IC50 [3] | IC50 [4] | SMILES
270 µM | 809 µM | 669 µM | 782 µM | O=C(O)[C@H]1CCC2C[C@H](C(c3ccccc3)c3ccccc3)CCN2C1 (stereo partly specified)
632 µM | 2900 µM | 477 µM | 2040 µM | O=C(O)[C@@H]1CCC2C[C@H](C(c3ccccc3)c3ccccc3)CCN2C1 (stereo partly specified)
270 µM | 436 µM | 810 µM | 3230 µM | O=C(O)[C@@H]1CCC2CC(=C(c3ccccc3)c3ccccc3)CCN2C1 (stereo partly specified)
809 µM | 335 µM | 757 µM | 876 µM | O=C(O)[C@H]1CCC2CC(=C(c3ccccc3)c3ccccc3)CCN2C1 (stereo partly specified)
